Reference: US20220127247A1, “N-(PYRIDIN-2-YL)PYRIDINE-SULFONAMIDE DERIVATIVES AND THEIR USE IN THE TREATMENT OF DISEASE” (NOVARTIS AG, priority 2019, published 2022)

Key:
[1] = target: T1, delF508-CFTR (Homo sapiens, UniProt P13569, DEL508-508); experiment: Measurement of delF508-CFTR-HRP surface expression in CFBE41o- cells; assay type: cell-based; details: for EC50: HRP-tagged delF508-CFTR in CFBE41o- cells, 24 h with compound, luminescence, 10-point curve, top 10 μM; for Emax: efficacy relative to reference compound 3-(6-(1-(2,2-difluorobenzo[d][1,3]dioxol-5-yl)cyclopropane-1-carboxamido)-3-methylpyridin-2-yl)benzoic acid, CFBE41o- cells, 24 h, read-out: DelF508-CFTR-HRP Amax %
T1 construct: expressed in transfected cells
Summary of the method: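 CFBE41o- cells stably expressing delF508-CFTR with HRP in the fourth extracellular loop, induced with 500 ng/mL doxycycline for 48 h, then treated with compound (top 10 μM, 10-point 3-fold) for 24 h at 37° C. Surface HRP detected by luminescence with cell-impermeant substrate; EC50 from logistic fit of triplicates, normalized to lowest concentration.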

[2] = target: T1, delF508-CFTR; experiment: delF508-CFTR functional activity in primary human bronchial epithelial cells (HBECs), Multi-Transepithelial Clamp Circuit (MTECC-24) assay; assay type: cell-based; details: for EC50: primary human delF508-CFTR bronchial epithelial cells, 24 h with compound, equivalent short circuit current (Ieq), forskolin plus potentiator, mean of at least two replicates, read-out: MTECC24-CFHBEC EC50; for MTECC24-CFHBEC Amax %: test compound added 24 h before assay, with potentiator (S)-3-amino-6-methoxy-N-(3,3,3-trifluoro-2-hydroxy-2-methylpropyl)-5-(trifluoromethyl)picolinamide, relative to 2 μM 3-(6-(1-(2,2-difluorobenzo[d][1,3]dioxol-5-yl)cyclopropane-1-carboxamido)-3-methylpyridin-2-yl)benzoic acid + 0.5 μM N-(2,4-di-tert-butyl-5-hydroxyphenyl)-4-oxo-1,4-dihydroquinoline-3-carboxamide
From the text: Measurement of delF508-CFTR Functional Activity in Primary Human Bronchial Epithelial Cells (HBECs) Using Multi-Transepithelial Clamp Circuit (MTECC-24) Assay
This assay measures the functional activity of the CFTR channel (Chloride ion transport) in patient derived primary human bronchial epithelial cells with forskolin activation and in the presence of the CFTR corrector/potentiator combination.
Primary human delF508-CFTR bronchial epithelial cells were and cultured according to previously established methods (Neuberger, T. et, al., Methods in Molecular Biology, 2011, 741, pp 39-54). Briefly, before thawing the HBEC cells, T25 flasks were coated with 2 mL of 3T3 conditioned media (MTI-GlobalStem, Cat #GSM9100) for at least 12 hours in 37° C. CO2 incubator. 1.7×10^5 cells were seeded into one T25 flask with 5 mL of HBE growth media (BEBM with supplements (Lonza, Cat #CC-3170) with 10 nM of retinoic acid (Sigma, Cat #R-2625) and 1% of PSA (Hyclone, Cat #SV30079.01). Media was changed every day till the cells were 100% confluent. Cells were seeded into T75 flasks (pre-coated with 5 mL of 3T3 conditioned media for more than 12 hrs) at 4.95×10^5 cells/T75 flask in 15 mL of HBE growth media. Flasks were fed everyday with fresh HBE growth media until the cells were confluent. 24-well transwell plates (Corning, Cat #3378) were coated with 3T3 conditioned media (70 μL on top of the filter, 350 μL to the bottom of the well) overnight in the 37° C. CO2 incubator. Cells were seeded in the pre-coated 24-well transwell plates at 1.7×10^5 cell/well with 700 μL of growth media at the bottom of the well and 200 μL of growth media at the top of the filter. After 24 hrs, cells were switched into HBE differentiation media ((DMEM/F12 (Gibco, Cat #11330-032) supplement with 2% Ultroser G (Pall, Cat #15950-017), 2% of Fetal Clone II (Hyclone, Cat #SH30066.03), 0.25% Bovine Brain Extract (Lonza, Cat #CC-4098), 1% of PSA, 2.5 μg/mL of Insulin (Sigma, Cat #19278), 20 nM of Hydrocortisone (Sigma, Cat #H0888), 500 nM of Triiodothyronine (Sigma, Cat #T6397), 2.5 μg/mL of Transferrin (Sigma, Cat #T8158), 250 nM of Ethanolamine (Sigma, Cat #E0135), 1.5 μM of Epinephrine (Sigma, Cat #E4250), 250 nM of Phosphoethanolamine (Sigma, Cat #P0503), 10 nM of retinoic acid)) with 200 μL on top of the filter (apical side) and 700 μL at the bottom of the well (basolateral side). Cells were fed every other day with the differentiation media. After 4 days, cells were exposed to air/liquid interface. Then cells were fed every other day for 4 weeks before fully differentiated.
Cells were washed with 3 mM DTT in PBS at 70 ul/well for 30 min at 37° C. 6 days before the assay. 3 days before the assay, cells were washed again with PBS at 70 ul/well for 30 min at 37° C. Then cells were treated with compound for 24 hrs before the assay.
Following 24 hr treatment with compound, cells were transferred into plates containing 750 ul of assay media on basolateral side and 250 ul on apical side (Assay medium: F-12 Coon's modified, 20 mM HEPES pH7.4 with TRIS Base, No FCS or bicarbonate). The plates wee then transferred to the heated plate compartments (basolateral buffer temperature ˜36.5° C. on the heating block) of the TECC24 system for 45 mins prior to measurements.
Modulators were added sequentially as follows while the TECC24 instrument recorded the equivalent short circuit current (Ieq):
Prior to dilution into assay medium the stocks were as follows: • Benzamil stock: 10 mM in DMSO • Forskolin Stock: 50 mM in DMSO • N-(2,4-di-tert-butyl-5-hydroxyphenyl)-1,4-dihydro-4-oxoquinoline-3-carboxamide: 50 mM in DMSO • (S)-3-amino-6-methoxy-N-(3,3,3-trifluoro-2-hydroxy-2-methylpropyl)-5-(trifluoromethyl)picolinamide: 50 mM stock 100% DMSO • Bumetanide stock: 20 mM in EtOH
The data was normalized using the median signal from wells treated with 0.1% DMSO as a baseline. Curve fitting and EC50 calculations were performed using the following equation: […]

T1 sequence (P13569 with tags, fused parts or gaps DEL508-508): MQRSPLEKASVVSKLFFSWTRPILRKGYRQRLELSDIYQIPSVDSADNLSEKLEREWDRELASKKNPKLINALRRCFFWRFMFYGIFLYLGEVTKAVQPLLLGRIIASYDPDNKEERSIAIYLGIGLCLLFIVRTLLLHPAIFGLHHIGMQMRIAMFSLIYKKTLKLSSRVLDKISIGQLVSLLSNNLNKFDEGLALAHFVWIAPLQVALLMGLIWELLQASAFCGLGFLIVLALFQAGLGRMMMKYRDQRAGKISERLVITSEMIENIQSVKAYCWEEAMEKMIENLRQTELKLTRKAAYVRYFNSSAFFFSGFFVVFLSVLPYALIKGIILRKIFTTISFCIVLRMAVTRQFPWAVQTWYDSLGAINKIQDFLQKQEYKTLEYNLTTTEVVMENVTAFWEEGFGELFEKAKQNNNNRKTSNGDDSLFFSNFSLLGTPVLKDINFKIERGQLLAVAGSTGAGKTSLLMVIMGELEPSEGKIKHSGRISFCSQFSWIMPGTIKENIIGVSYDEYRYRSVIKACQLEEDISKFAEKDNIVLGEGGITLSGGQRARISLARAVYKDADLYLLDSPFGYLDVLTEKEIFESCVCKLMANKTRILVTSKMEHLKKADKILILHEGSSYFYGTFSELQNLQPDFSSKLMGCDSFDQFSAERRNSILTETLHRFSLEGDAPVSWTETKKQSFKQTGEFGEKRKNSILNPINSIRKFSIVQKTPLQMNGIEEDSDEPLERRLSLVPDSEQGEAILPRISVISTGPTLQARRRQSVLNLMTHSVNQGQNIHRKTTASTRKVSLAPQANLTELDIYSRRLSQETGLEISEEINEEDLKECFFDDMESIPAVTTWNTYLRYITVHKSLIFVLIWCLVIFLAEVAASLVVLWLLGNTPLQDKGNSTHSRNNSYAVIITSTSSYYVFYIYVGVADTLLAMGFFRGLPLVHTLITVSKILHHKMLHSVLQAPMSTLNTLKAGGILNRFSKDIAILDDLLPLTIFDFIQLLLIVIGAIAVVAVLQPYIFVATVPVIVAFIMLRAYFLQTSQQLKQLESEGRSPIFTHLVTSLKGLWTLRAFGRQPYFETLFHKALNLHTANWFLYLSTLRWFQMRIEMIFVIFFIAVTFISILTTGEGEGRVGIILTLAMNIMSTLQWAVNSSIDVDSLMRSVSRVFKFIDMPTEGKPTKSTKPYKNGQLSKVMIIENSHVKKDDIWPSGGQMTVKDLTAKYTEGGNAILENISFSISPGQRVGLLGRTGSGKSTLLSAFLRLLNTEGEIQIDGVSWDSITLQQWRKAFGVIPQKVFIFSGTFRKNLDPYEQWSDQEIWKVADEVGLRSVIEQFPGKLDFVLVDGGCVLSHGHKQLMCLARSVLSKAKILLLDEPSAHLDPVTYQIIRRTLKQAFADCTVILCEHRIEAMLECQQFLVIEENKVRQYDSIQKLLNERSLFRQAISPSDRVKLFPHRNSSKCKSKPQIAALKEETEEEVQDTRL

## Cc1ccccc1-c1nc(NS(=O)(=O)c2cccc(N(CCC(=O)O)CC3CC3)n2)ccc1C(F)(F)F [Compound 86, 3-((cyclopropylmethyl)(6-(N-(6-(o-tolyl)-5-(trifluoromethyl)pyridin-2-yl)sulfamoyl)pyridin-2-yl)amino)propanoic Acid]
[1]
  EC50: 1.38 µM
[2]
  EC50: 0.061 µM
  MTECC24-CFHBEC Amax %: 253%

## CCCCN(CCCC(=O)O)c1cccc(S(=O)(=O)Nc2ccc(C(F)(F)F)c(-c3ccccc3C)n2)n1 [Compound 87, 4-(butyl(6-(N-(6-(o-tolyl)-5-(trifluoromethyl)pyridin-2-yl)sulfamoyl)pyridin-2-yl)amino)butanoic Acid]
[1]
  EC50: 1.38 µM
[2]
  EC50: 0.104 µM
  MTECC24-CFHBEC Amax %: 269%

## CC(C)c1ccccc1-c1nc(NS(=O)(=O)c2cccc(N(C)CCCC(=O)O)n2)ccc1C(F)(F)F [Compound 90, 4-((6-(N-(6-(2-isopropylphenyl)-5-(trifluoromethyl)pyridin-2-yl)sulfamoyl)pyridin-2-yl)(methyl)amino)butanoic Acid]
[1]
  EC50: 1.35 µM
[2]
  EC50: 0.005 µM
  MTECC24-CFHBEC Amax %: 135%

## Cc1ccc(F)cc1-c1nc(NS(=O)(=O)c2cccc(N(C)CCCC(=O)O)n2)ccc1C(F)(F)F [Compound 92, 4-((6-(N-(6-(5-fluoro-2-methylphenyl)-5-(trifluoromethyl)pyridin-2-yl)sulfamoyl)pyridin-2-yl)(methyl)amino)butanoic Acid]
[1]
  EC50: 1.82 µM
[2]
  EC50: 0.394 µM
  MTECC24-CFHBEC Amax %: 123%

## CCc1ccc(F)cc1-c1nc(NS(=O)(=O)c2cccc(N(C)CCCC(=O)O)n2)ccc1C(F)(F)F [Compound 93, 4-((6-(N-(6-(2-ethyl-5-fluorophenyl)-5-(trifluoromethyl)pyridin-2-yl)sulfamoyl)pyridin-2-yl)(methyl)amino)butanoic Acid]
[1]
  EC50: 1.43 µM
[2]
  EC50: 0.04 µM
  MTECC24-CFHBEC Amax %: 235%

## Cc1ccccc1-c1nc(NS(=O)(=O)c2cccc(N(CCCC(=O)O)C(C)C)n2)ccc1C(F)(F)F [Compound 94, 4-(isopropyl(6-(N-(6-(o-tolyl)-5-(trifluoromethyl)pyridin-2-yl)sulfamoyl)pyridin-2-yl)amino)butanoic acid]
[1]
  EC50: 1.37 µM
[2]
  EC50: 0.026 µM
  MTECC24-CFHBEC Amax %: 208%

## Cc1ccc(F)cc1-c1nc(NS(=O)(=O)c2cccc(N(CCCC(=O)O)C(C)C)n2)ccc1C(F)(F)F [Compound 95, 4-((6-(N-(6-(5-fluoro-2-methylphenyl)-5-(trifluoromethyl)pyridin-2-yl)sulfamoyl)pyridin-2-yl)(isopropyl)amino)butanoic Acid]
[1]
  EC50: 1.68 µM
[2]
  EC50: 0.024 µM
  MTECC24-CFHBEC Amax %: 148%

## CCc1ccccc1-c1nc(NS(=O)(=O)c2cccc(N(CCCC(=O)O)C(C)C)n2)ccc1C(F)(F)F [Compound 96, 4-((6-(N-(6-(2-ethylphenyl)-5-(trifluoromethyl)pyridin-2-yl)sulfamoyl)pyridin-2-yl)(isopropyl)amino)butanoic Acid]
[1]
  EC50: 0.72 µM
[2]
  EC50: 0.002 µM
  MTECC24-CFHBEC Amax %: 202%

## CCc1ccccc1-c1nc(NS(=O)(=O)c2cccc(N(CC)CCCC(=O)O)n2)ccc1C(F)(F)F [Compound 97, 4-(ethyl(6-(N-(6-(2-ethylphenyl)-5-(trifluoromethyl)pyridin-2-yl)sulfamoyl)pyridin-2-yl)amino)butanoic Acid]
[1]
  EC50: 1.36 µM
[2]
  EC50: 0.004 µM
  MTECC24-CFHBEC Amax %: 190%

## CCCCN(CCCC(=O)O)c1cccc(S(=O)(=O)Nc2ccc(C(F)(F)F)c(-c3cc(F)ccc3C)n2)n1 [Compound 102, 4-(butyl(6-(N-(6-(5-fluoro-2-methylphenyl)-5-(trifluoromethyl)pyridin-2-yl)sulfamoyl)pyridin-2-yl)amino)butanoic Acid]
[1]
  EC50: 1.26 µM
[2]
  EC50: 0.131 µM
  MTECC24-CFHBEC Amax %: 298%

## Cc1ccccc1-c1nc(NS(=O)(=O)c2cccc(N(CCCC(=O)O)CC3CC3)n2)ccc1C(F)(F)F [Compound 103, 4-((cyclopropylmethyl)(6-(N-(6-(o-tolyl)-5-(trifluoromethyl)pyridin-2-yl)sulfamoyl)pyridin-2-yl)amino)butanoic Acid]
[1]
  EC50: 1.43 µM
[2]
  EC50: 0.073 µM
  MTECC24-CFHBEC Amax %: 142%

## CCc1ccc(F)cc1-c1nc(NS(=O)(=O)c2cccc(N(CC)CCCC(=O)O)n2)ccc1C(F)(F)F [Compound 110, 4-(ethyl(6-(N-(6-(2-ethyl-5-fluorophenyl)-5-(trifluoromethyl)pyridin-2-yl)sulfamoyl)pyridin-2-yl)amino)butanoic Acid]
[1]
  EC50: 1.03 µM
[2]
  EC50: 0.006 µM
  MTECC24-CFHBEC Amax %: 182%

## CCN(CCCC(=O)O)c1cccc(S(=O)(=O)Nc2ccc(C(F)(F)F)c(-c3ccccc3C)n2)n1 [Compound 114, 4-(ethyl(6-(N-(6-(o-tolyl)-5-(trifluoromethyl)pyridin-2-yl)sulfamoyl)pyridin-2-yl)amino)butanoic Acid]
[1]
  EC50: 1.68 µM
[2]
  EC50: 0.101 µM
  MTECC24-CFHBEC Amax %: 211%

## CCN(CCCC(=O)O)c1cccc(S(=O)(=O)Nc2ccc(C(F)(F)F)c(-c3cc(F)ccc3C)n2)n1 [Compound 115, 4-(ethyl(6-(N-(6-(5-fluoro-2-methylphenyl)-5-(trifluoromethyl)pyridin-2-yl)sulfamoyl)pyridin-2-yl)amino)butanoic Acid]
[1]
  EC50: 1.51 µM
[2]
  EC50: 0.07 µM
  MTECC24-CFHBEC Amax %: 146%

## Cc1ccccc1-c1nc(NS(=O)(=O)c2cccc(N(CCC(=O)O)C3CC3)n2)ccc1C(F)(F)F [Compound 118, 3-(cyclopropyl(6-(N-(6-(o-tolyl)-5-(trifluoromethyl)pyridin-2-yl)sulfamoyl)pyridin-2-yl)amino)propanoic Acid]
[1]
  EC50: 1.85 µM
  Emax: 563%
[2]
  EC50: 0.27 µM
  MTECC24-CFHBEC Amax %: 151%

## Cc1ccccc1-c1nc(NS(=O)(=O)c2cccc(N(CCCC(=O)O)C3CC3)n2)ccc1C(F)(F)F [Compound 125, 4-(cyclopropyl(6-(N-(6-(o-tolyl)-5-(trifluoromethyl)pyridin-2-yl)sulfamoyl)pyridin-2-yl)amino)butanoic Acid]
[1]
  EC50: 1.36 µM
  Emax: 643%
[2]
  EC50: 0.422 µM
  MTECC24-CFHBEC Amax %: 114%
